Experimental data as given in patent US20040067507A1, “Liver inflammation predictive genes” (priority 2002, published 2004).
Like-named read-outs stand apart in the source and are kept apart here.

System: Sprague Dawley rats Crl:CD
Format: in vivo, rat
Description: In addition to the database described and utilized herein, other toxicology gene expression databases may be generated, and used to identify additional liver toxicity biomarkers, which may also be employed in the practice of the liver inflammation prediction methods of the invention. […] An example of compounds, dose levels, liver toxicity classifications and histopathology scores used in the Examples which follow are provided in Table 1. The compounds and dose levels are abbreviated in the Abbreviation Column. The Inflammation Score relates the histopathology liver inflammation, a score of “2” or higher indicates histopathology of increasing severity.
Identification of Correlating Genes: For the purpose of identifying candidate predictive genes, the database preferably includes histopathology scores for each animal which has been exposed to one or more agent(s). […] The scores are numerical scores that reflect the occurrence and severity of histopathological changes. These scores can be adjusted to have similar range to gene expression changes. […] Because the scores are numerical, they are suitable for use with a variety of statistical correlation and similarity measures.
Sprague Dawley rats Crl:CD from Charles River, Raleigh, N.C. were divided into treated rats that receive a specific concentration of the compound (see Table 1) and the control rats that only received the vehicle in which the compound is mixed (e.g., saline).
At specified timepoints (6 h, 24 h and 72 h) after administration (intraperitoneal route) of the compound, a set number of rats (usually 3 control and 3 treated) were euthanized and tissues collected. Each rat was heavily sedated with an overdose of CO2 by inhalation and a maximum amount of blood drawn. Exsanguination of the rat by this drawing of blood kills the rat. The method of collecting the tissues is very important and ensures preserving the quality of the mRNA in the tissues. The body of the rat was then opened up and prosectors rapidly removed the tissues (including liver) and immediately placed them into liquid nitrogen. […] The organs/tissues were then packaged into well-labeled plastic freezer quality bags and stored at −80 degrees until needed for isolation of the mRNA from a portion of the organ/tissue sample.
Correlation with Histopathology Scores: Histopathology scores for each animal (assigned on a compound-dose basis as indicated in Table 1) were entered with gene expression data by using the GeneSpring™ ‘Drawn Gene’ function. Correlations between inflammation histopathology scores and gene expression were conducted with the distance measures listed below: […]

[1] = 20 mg/kg i.p., 72 h, 1=no histopathology, 2 or higher=increasing severity
[2] = 75 mg/kg i.p., 72 h, 1=no histopathology, 2 or higher=increasing severity
[3] = 15 mgkg i.p., 72 h, 1=no histopathology, 2 or higher=increasing severity
[4] = 60 mgkg i.p., 72 h, 1=no histopathology, 2 or higher=increasing severity
[5] = 13 mg/kg i.p., 72 h, 1=no histopathology, 2 or higher=increasing severity
[6] = 50 mg/kg i.p., 72 h, 1=no histopathology, 2 or higher=increasing severity
[7] = Sprague Dawley Crl:CD, rat, in vivo
[8] = 5 mg/kg i.p., 72 h, 1=no histopathology, 2 or higher=increasing severity
[9] = Sprague Dawley Crl:CD, rat, in vivo, ip
[10] = 30 mg/kg i.p., 72 h, 1=no histopathology, 2 or higher=increasing severity
[11] = 0.2 ml/kg i.p., 72 h, 1=no histopathology, 2 or higher=increasing severity
[12] = 0.8 ml/kg i.p., 72 h, 1=no histopathology, 2 or higher=increasing severity
[13] = 14 mg/kg i.p., 72 h, 1=no histopathology, 2 or higher=increasing severity

CN(N=O)C(=O)N[C@H]1C(O)O[C@H](CO)[C@@H](O)[C@@H]1O (mixture of isomers) [streptozotocin]
Liver Inflammation (20 mg/kg i.p., 72 h): no
Liver Necrosis (20 mg/kg i.p., 72 h): no
Inflamm. Score [1]: 1
Necr. Score [1]: 1
Liver Inflammation (75 mg/kg i.p., 72 h): no
Liver Necrosis (75 mg/kg i.p., 72 h): no
Inflamm. Score [2]: 1
Necr. Score [2]: 1

S=C=Nc1cccc2ccccc12 [1-naphthylisothiocyanate]
Liver Necrosis (15 mgkg i.p., 72 h): no
Inflamm. Score [3]: 1
Necr. Score [3]: 1
Liver Necrosis (60 mgkg i.p., 72 h): yes
Inflamm. Score [4]: 2
Necr. Score [4]: 2

O=c1[nH]cc(F)c(=O)[nH]1 [5-fluorouracil]
Liver Inflammation (13 mg/kg i.p., 72 h): no
Liver Necrosis (13 mg/kg i.p., 72 h): no
Inflamm. Score [5]: 1
Necr. Score [5]: 1
Liver Inflammation (50 mg/kg i.p., 72 h): no
Liver Necrosis (50 mg/kg i.p., 72 h): no
Inflamm. Score [6]: 1
Necr. Score [6]: 1

CC(=O)Nc1ccc(O)cc1 [acetaminophen]
Inflamm. Score [7]: 1
Liver Inflammation (rat, in vivo): no

COc1cc2c(c3oc(=O)c4c(c13)CCC4=O)[C@@H]1C=CO[C@@H]1O2 [aflatoxin]
Inflamm. Score (rat, in vivo): 4
Liver Inflammation (rat, in vivo): yes
Liver Necrosis (rat, in vivo): yes
Necr. Score (rat, in vivo): 8

C[C@@H]1[C@H](O)[C@@H](C)/C=C/C=C/C=C/C=C/C=C/C=C/C=C/[C@H](O[C@@H]2O[C@H](C)[C@@H](O)[C@H](N)[C@@H]2O)C[C@@H]2O[C@](O)(C[C@@H](O)C[C@@H](O)[C@H](O)CC[C@@H](O)C[C@@H](O)CC(=O)O[C@H]1C)C[C@H](O)[C@H]2C(=O)O [amphotericin B]
Liver Inflammation (5 mg/kg i.p., 72 h): no
Liver Necrosis (5 mg/kg i.p., 72 h): no
Inflamm. Score [8]: 1
Necr. Score [8]: 1
Liver Inflammation (20 mg/kg i.p., 72 h): no
Liver Necrosis (20 mg/kg i.p., 72 h): no
Inflamm. Score [1]: 1
Necr. Score [1]: 1

Cn1cnc([N+](=O)[O-])c1Sc1ncnc2nc[nH]c12 [azathioprine]
Inflamm. Score [7]: 1
Necr. Score [7]: 1
Liver Inflammation (rat, in vivo): no
Liver Necrosis (rat, in vivo): no

c1ccccc1 [benzene]
Inflamm. Score [9]: 1
Necr. Score [9]: 1
Liver Inflammation (rat, in vivo, ip): no
Liver Necrosis (rat, in vivo, ip): no

c1ccc2c(c1)cc1ccc3cccc4ccc2c1c34 [benzo[a]pyrene]
Liver Inflammation (30 mg/kg i.p., 72 h): no
Liver Necrosis (30 mg/kg i.p., 72 h): no
Inflamm. Score [10]: 1
Necr. Score [10]: 1

Brc1ccccc1 [bromobenzene]
Liver Inflammation (0.2 ml/kg i.p., 72 h): yes
Liver Necrosis (0.2 ml/kg i.p., 72 h): yes
Inflamm. Score [11]: 2
Necr. Score [11]: 2
Liver Inflammation (0.8 ml/kg i.p., 72 h): yes
Liver Necrosis (0.8 ml/kg i.p., 72 h): yes
Inflamm. Score [12]: 3
Necr. Score [12]: 4

CS(=O)(=O)OCCCCOS(C)(=O)=O [busulfan]
Liver Inflammation (14 mg/kg i.p., 72 h): no
Liver Necrosis (14 mg/kg i.p., 72 h): no
Inflamm. Score [13]: 1
Necr. Score [13]: 1
